Source: patent US4745067A, “L-aminoacylases” (Microbial Chemistry Research Foundation, priority 1985, dated 1988)
“Also recorded” adds a separate entry of the source. Read-outs that look alike come from different tables or passages of the source.

Tests used:
L-aminoacylase S1 [1] = assay: Influence of inhibitors on L-aminoacylase S1; assay type: biochemical, Streptomyces hachijoensis
Protocol: (§1) A potassium phosphate buffer solution (pH 7.0) of the enzyme of the present invention was treated for one hour at various temperatures, and the remaining activity was measured. As the substrate, L-threo-N-acetyl-3-(3,4-dibenzyloxyphenyl)serine (hereinafter referred to simply as N-Ac-DB-DOPS) was employed, and the reaction was conducted at 37° C. for one hour, whereupon freed L-threo-3-(3,4-dibenzyloxyphenyl)serine (hereinafter referred to simply as DB-DOPS) was measured by a ninhydrin method to determine the activity. As shown, 95% or more is deactivated by the treatment at pH 7.0 at 60° C., but the enzyme is certainly stable at a temperature of 50° C. or lower.
The enzyme of the present invention is left to stand at 37° C. for one hour together with various inhibitors, and then reacted with N-Ac-DB-DOPS as the substrate at 37° C. for one hour, whereby the remaining activity was measured by the above-mentioned method.

L-aminoacylase S2 [2] = assay: Influence of inhibitors on L-aminoacylase S2; assay type: biochemical, Streptoverticillium rimofaciens
Protocol: As the substrate, N-Ac-DB-DOPS was used, and the reaction was conducted at 37° C. for one hour, whereby freed DB-DOPS was measured by a ninhydrin method to determine the enzymatic activity. As shown in the Figure, 20% is deactivated by the treatment at 60° C., and at least 70% is deactivated at 70° C. However, the enzyme is certainly stable at 50° C.
The enzyme of the present invention was left to stand for one hour at 37° C. together with various inhibitors, and then reacted at 37° C. for one hour with N-Ac-DB-DOPS as the substrate, whereupon the remaining activity was measured by the above-mentioned method.

L-aminoacylase S1 [3] = assay: Influence of metal ions on L-aminoacylase S1; assay type: biochemical, Streptomyces hachijoensis; conditions: for Relative activity (%): 1 mM metal salt, 37° C. one hour, substrate N-Ac-DB-DOPS, no metal added = 100%
Protocol: as §1, with “activity.” for “activity. As shown, 95% or more is deactivated by the treatment at pH 7.0 at 60° C., but the enzyme is certainly stable at a temperature of 50° C. or lower.”
L-aminoacylase S1 of the present invention is added to a 0.1 M Veronal buffer solution containing a final concentration of 1 mM of various metal salts, and left to stand at 37° C. for one hour. Then, it was reacted with N-Ac-DB-DOPS as the substrate at 37° C. for 1 hour, whereby the relative activity was measured by the above-mentioned method. The one where no metal was added, was evaluated to be 100%.

L-aminoacylase S2 [4] = assay: Influence of metal ions on L-aminoacylase S2; assay type: biochemical, Streptoverticillium rimofaciens; conditions: for Relative activity (%): 1 mM metal salt, 37° C. 1 hour, substrate N-Ac-DB-DOPS, no metal salt added = 100%
Protocol: As the substrate, N-Ac-DB-DOPS was used, and the reaction was conducted at 37° C. for one hour, whereby freed DB-DOPS was measured by a ninhydrin method to determine the enzymatic activity.
L-aminoacylase S2 of the present invention was added to 0.1 M Veronal buffer solution containing as the final concentration 1 mM of various metal salts, and the reaction was conducted at 37° C. for 1 hour. Then, it was reacted with N-Ac-DB-DOPS as the substrate at 37° C. for one hour, whereupon the relative activity was measured by the above-mentioned method. The activity of the one where no metal salt was added, was evaluated to be 100%.

L-aminoacylase S1 [5] = assay: Substrate profile of L-aminoacylase S1; assay type: biochemical, Streptomyces hachijoensis; conditions: for Relative activity (%): compound used as substrate, L-N-acetyl-methionine evaluated to be 100
Protocol: (§2) The enzymatic activity was measured by using N-acyl derivatives of various amino acids as the substrate.

L-aminoacylase S2 [6] = assay: Substrate profile of L-aminoacylase S2; assay type: biochemical, Streptoverticillium rimofaciens; conditions: for Relative activity (%): compound used as substrate, L-N-acetyl-methionine evaluated to be 100
Protocol: as §2

[7] = Comparison of substrate profiles of L-aminoacylases, substrate L-N-acetyl-methionine; assay type: biochemical; set-up: key: +: active; -: inactive; conditions: Table 7
Protocol: (§3) The substrate profiles of L-aminoacylase S1 and L-aminoacylase S2 of the present invention and conventional L-aminoacylases were measured.
(§4) L-aminoacylase S1 and L-aminoacylase S2 of the present invention was compared with commercially available L-aminoacylases in their activity by using N-acetyl derivatives of D- or L-methionine and L-threo-3-(3,4-dibenzyloxyphenyl) serine as substrates.

[8] = Comparison of substrate profiles of L-aminoacylases, substrate D-N-acetyl-methionine; assay type: biochemical; set-up: key: +: active; -: inactive; conditions: Table 7
Protocol: as §3, §4

[9] = Comparison of substrate profiles of L-aminoacylases, substrate L-threo-N-acetyl-3-(3,4-dibenzyloxyphenyl)serine; assay type: biochemical; set-up: key: +: active; -: inactive; conditions: Table 7
Protocol: as §3, §4

[10] = L-aminoacylase S1, inhibitor 1 mM, 37° C. one hour, substrate N-Ac-DB-DOPS
[11] = L-aminoacylase S2, inhibitor 1 mM, 37° C. one hour, substrate N-Ac-DB-DOPS

## O=C(O)CI [Monoiodoacetic acid]
L-aminoacylase S1 [1]
  Influence of inhibitors on activity (in words): not inhibited
  Remaining activity (%): 94%
L-aminoacylase S2 [2]
  Influence of inhibitors on activity (in words): strongly inhibited
  Remaining activity (%): 3%

## [Ca+2] [Ca^++]
L-aminoacylase S1 [3]
  Relative activity (%): 72%
L-aminoacylase S2 [4]
  Relative activity (%): 98%

## CSCC[C@@H](NC(C)=O)C(=O)O [D-N--acetyl-methionine]
L-aminoacylase S1 [5]
  Relative activity (%): 0%
L-aminoacylase S2 [6]
  Relative activity (%): 0%

## O=C(O)c1cc[c]([Hg][Cl])cc1 [p-chloromercuribenzoate]
L-aminoacylase S1 [1]; L-aminoacylase S1
  Influence of inhibitors on activity (in words): inhibited
L-aminoacylase S1 [1]; [10]
  Remaining activity (%): 2%
L-aminoacylase S2 [2]; L-aminoacylase S2
  Influence of inhibitors on activity (in words): strongly inhibited
L-aminoacylase S2 [2]; [11]
  Remaining activity (%): 0%

## CC(=O)N[C@H](C(=O)O)C(C)C [L-N--acetyl-valine]
L-aminoacylase S1 [5]
  Relative activity (%): 42%
L-aminoacylase S2 [6]
  Relative activity (%): 35%

## CC(=O)N[C@@H](Cc1c[nH]c2ccccc12)C(=O)O [L-N--acetyl-tryptophan]
L-aminoacylase S1 [5]
  Relative activity (%): 80%
L-aminoacylase S2 [6]
  Relative activity (%): 98%

## [Mg+2] [Mg^++]
L-aminoacylase S1 [3]
  Relative activity (%): 107%
L-aminoacylase S2 [4]
  Relative activity (%): 95%

## CSCC[C@H](NC=O)C(=O)O [L-N--formyl-methionine]
L-aminoacylase S1 [5]
  Relative activity (%): 4%
L-aminoacylase S2 [6]
  Relative activity (%): 5%

## CC(=O)NC(C)c1ccccc1 (racemic) [DL-N--acetyl-α-methylbenzylamine, DL-N-acetyl-α-methylbenzylamine]
L-aminoacylase S1 [5]
  Action of the enzyme on the substrate (in words): does not act
  Relative activity (%): 0%
L-aminoacylase S2 [6]
  Action of the enzyme on the substrate (in words): does not act
  Relative activity (%): 0%

## [Mn+2] [Mn^++]
L-aminoacylase S1 [3]
  Relative activity (%): 61%
L-aminoacylase S2 [4]
  Influence of metal ions on activity (in words): prohibited; also recorded: strongly inhibited
  Relative activity (%): 31%

## CC(=O)N[C@@H](C)C(=O)O [L-N--acetyl-alanine]
L-aminoacylase S1 [5]
  Relative activity (%): 7%
L-aminoacylase S2 [6]
  Relative activity (%): 8%

## CC(=O)N[C@H]1C(O)O[C@H](CO)[C@@H](O)[C@@H]1O (stereo partly drawn) [N--acetyl-D-glucosamine, N-acetyl-D-glucosamine]
L-aminoacylase S1 [5]
  Action of the enzyme on the substrate (in words): does not act
  Relative activity (%): 0%
L-aminoacylase S2 [6]
  Action of the enzyme on the substrate (in words): does not act
  Relative activity (%): 0%

## CC(=O)NCC(=O)O [N--acetyl-glycine]
L-aminoacylase S1 [5]
  Relative activity (%): 2%
L-aminoacylase S2 [6]
  Relative activity (%): 2%

## CC(=O)N[C@H](C(=O)O)c1ccc(CO)c(O)c1 [L-N--acetyl-2-(4-hydroxymethyl-3-hydroxyphenyl)glycine]
L-aminoacylase S1 [5]
  Relative activity (%): 41%
L-aminoacylase S2 [6]
  Relative activity (%): 65%

## [Ni+2] [Ni^++]
L-aminoacylase S1 [3]
  Influence of metal ions on activity (in words): strongly inhibited
  Relative activity (%): 7%
L-aminoacylase S2 [4]
  Influence of metal ions on activity (in words): prohibited; also recorded: strongly inhibited
  Relative activity (%): 33%

## [Cu+2] [Cu^++]
L-aminoacylase S1 [3]
  Influence of metal ions on activity (in words): strongly inhibited
  Relative activity (%): 14%
L-aminoacylase S2 [4]
  Influence of metal ions on activity (in words): prohibited; also recorded: strongly inhibited
  Relative activity (%): 16%

## CC(=O)N[C@H](Cc1c[nH]c2ccccc12)C(=O)O [D-N--acetyl-tryptophan]
L-aminoacylase S1 [5]
  Relative activity (%): 0%
L-aminoacylase S2 [6]
  Relative activity (%): 0%

## [Zn+2] [Zn^++]
L-aminoacylase S1 [3]
  Relative activity (%): 102%
L-aminoacylase S2 [4]
  Relative activity (%): 71%

## CC(=O)N[C@@H](CC(C)C)C(=O)O [L-N--acetyl-leucine]
L-aminoacylase S1 [5]
  Relative activity (%): 76%
L-aminoacylase S2 [6]
  Relative activity (%): 71%

## CC(=O)N[C@H](C(=O)O)[C@H](O)c1ccc(OCc2ccccc2)c(OCc2ccccc2)c1 [L-threo-N-acetyl-3-(3,4-dibenzyloxyphenyl)serine]
L-aminoacylase S1 [5]
  Relative activity (%): 14%
L-aminoacylase S2 [6]
  Relative activity (%): 20%

## [Ag+] [Ag^+]
L-aminoacylase S1 [3]
  Influence of metal ions on activity (in words): strongly inhibited
  Relative activity (%): 3%
L-aminoacylase S2 [4]
  Influence of metal ions on activity (in words): prohibited; also recorded: strongly inhibited
  Relative activity (%): 0%

## CC(=O)N[C@@H](CCC(=O)O)C(=O)O [L-N--acetyl-glutamic acid]
L-aminoacylase S1 [5]
  Relative activity (%): 19%
L-aminoacylase S2 [6]
  Relative activity (%): 18%

## [Hg+2] [Hg^++]
L-aminoacylase S1 [3]
  Influence of metal ions on activity (in words): strongly inhibited
  Relative activity (%): 2%
L-aminoacylase S2 [4]
  Influence of metal ions on activity (in words): prohibited; also recorded: strongly inhibited
  Relative activity (%): 15%

## CSCC[C@H](NC(C)=O)C(=O)O [L-N--acetyl-methionine, L-N-acetyl-methionine]
L-aminoacylase S1 [5]
  Relative activity (%): 100%
L-aminoacylase S2 [6]
  Relative activity (%): 100%

## OCCS [β-mercaptoethanol]
L-aminoacylase S1 [1]; [10]
  Remaining activity (%): 76%

## CC(=O)N[C@@H](Cc1ccc(O)cc1)C(=O)O [L-N--acetyl-tyrosine]
L-aminoacylase S2 [6]
  Relative activity (%): 137%

## [Co+2] [Co^++]
L-aminoacylase S1 [3]
  Influence of metal ions on activity (in words): activated
  Relative activity (%): 162%
L-aminoacylase S2 [4]
  Influence of metal ions on activity (in words): prohibited; also recorded: strongly inhibited
  Relative activity (%): 38%

## CC(=O)N[C@@H](CCCNC(=N)N)C(=O)O [L-N--acetyl-arginine]
L-aminoacylase S1 [5]
  Relative activity (%): 85%
L-aminoacylase S2 [6]
  Relative activity (%): 61%

## N[C@@H](CS)C(=O)O [L-cysteine]
L-aminoacylase S2 [2]; L-aminoacylase S2
  Influence of inhibitors on activity (in words): strongly inhibited
L-aminoacylase S2 [2]; [11]
  Remaining activity (%): 11%
L-aminoacylase S2 [2]; L-aminoacylase S2, listed as cysteine
  Influence of inhibitors on activity (in words): inhibited

## [Fe+2] [Fe^++]
L-aminoacylase S1 [3]
  Influence of metal ions on activity (in words): strongly inhibited
  Relative activity (%): 17%
L-aminoacylase S2 [4]
  Influence of metal ions on activity (in words): prohibited; also recorded: strongly inhibited
  Relative activity (%): 18%

## CC(=O)N[C@@H](Cc1ccccc1)C(=O)O [L-N--acetyl-phenylalanine]
L-aminoacylase S1 [5]
  Relative activity (%): 197%
L-aminoacylase S2 [6]
  Relative activity (%): 286%

## CC(=O)N[C@@H](Cc1c[nH]cn1)C(=O)O [L-N--acetyl-histidine]
L-aminoacylase S1 [5]
  Relative activity (%): 41%
L-aminoacylase S2 [6]
  Relative activity (%): 36%

## CSCC[C@H](NC(=O)c1ccccc1)C(=O)O [L-N--benzoyl-methionine]
L-aminoacylase S2 [6]
  Relative activity (%): 10%

B1: Acylase I: commercially available aminoacylase (hog kidney), manufactured by Miles Laboratory (protein, UniProt P37111 2-407, looked up)
Aminoacylase-1: ASKGREGEHPSVTLFRQYLRIRTVQPEPDYGAAVAFLEERARQLGLGCQKVEVVPGHVVTVLTWPGTNPTLSSILLNSHTDVVPVFKEHWSHDPFEGFKDADGYIYGRGAQDMKCVSIQYLEAVRRLKVEGHHFPRTIHMTFVPDEEVGGHQGMELFVKRPEFQALRAGFALDEGLASPTDAFTVFYSERSPWWLRVTSTGKPGHGSRFIEDTAAEKLHKVINSILAFREKEKQRLQSNQLKPGAVTSVNLTMLEGGVAYNVVPATMSACFDFRVAPDVDLKAFEEQLQSWCQAAGEGVTFEFVQKWMETQVTSTDDSDPWWAAFSGVFKDMKLALELEICPASTDARYIRAAGVPALGFSPMNHTPVLLHDHDERLHEAVFLRGVDIYTQLLSALASVPALPSES
[7]
  Activity on substrate L-N-acetyl-methionine: +
[8]
  Activity on substrate D-N-acetyl-methionine: -
[9]
  Activity on substrate L-threo-N-acetyl-3-(3,4-dibenzyloxyphenyl)serine: -
